Positions of bridges follow the written chain, without caps; N, C: chain ends. Non-standard residues stand in square brackets, D forms with d. Residues, ends and D or L forms follow the SMILES beside them. No end group written: not given here. pGlu = O=C1CC[C@@H](C(=O)O)N1
Tests used:
[1] = test system: uncapacitated mouse sperm; experiment: Chlortetracycline (CTC) fluorescence analysis of capacitation in uncapacitated sperm; assay type: cell-based; details: 40 min incubation
Procedure: The contents of cauda epididymides (3-4 cauda per ml of medium) from mature TO male mice (Harlan Olac, Bicester, U.K.) were released into 2 ml modified Tyrode's medium (Fraser, 1993) in 30 mm sterile culture dishes and allowed to disperse for 5 min. For studies on uncapacitated sperm, suspensions were then filtered through short columns of Sephadex G-25 (medium grade; Pharmacia, Uppsala, Sweden) to remove non-motile cells. Filtered suspensions were aliquotted out to different treatment groups, treated with nothing (control), calcitonin or FPP (as a positive control) and then incubated for 40 min. Salmon calcitonin was used at a final concentration of 5 ng/ml, human calcitonin was used at 200 ng/ml and 20 ng/ml and FPP was used at 100 nM. These short-term incubations were carried out in 0.5 ml plastic microcentrifuge tubes at 37° C. in an atmosphere of 5% CO2, 5% O2, 90% N2. […] Three replicate experiments using uncapacitated sperm were carried out using salmon calcitonin and the higher concentration of human calcitonin (n=3); for the lower concentration of the human hormone, n=2.
(§1) Chlortetracycline (CTC) fluorescence analysis was carried out as described by Green et al. (1994). Assessments were made on an Olympus BX40 microscope equipped with phase contrast and BX-FLA epifluorescence optics using the wide blue-violet excitation cube (U-MWBV). The excitation beam passed through a 400-440 nm band pass filter and CTC fluorescence was observed through a DM 455 dichroic mirror. In each sample, at least 100 sperm were classified as expressing one of three patterns: F, with fluorescence over the entire head, a pattern characteristic of uncapacitated (non-fertilizing), acrosome-intact sperm; B, with a fluorescence-free band in the postacrosomal region, a pattern characteristic of capacitated (potentially fertilizing), acrosome-intact sperm; AR, with dull or absent fluorescence over the whole head, a pattern characteristic of acrosome-reacted (non-fertilizing) sperm.

[2] = test system: capacitated mouse sperm; experiment: Spontaneous acrosome loss in capacitated suspensions (CTC); assay type: cell-based; details: for incidence of spontaneously acrosome-reacted sperm vs untreated control: 40 min after 90 min capacitation
Procedure: as §1
Sperm suspensions were prepared as described earlier for CTC analysis and incubated for 90 min to allow capacitation. Suspensions were then filtered to remove non-motile cells and a sample was stained with CTC (Con-90). The remaining suspension was aliquotted out to different treatment groups and treated for 40 min with nothing (Con-130), 100 nM FPP (positive control), 100 nM FPP+100 ng/ml pertussis toxin (F+PT, negative control), 5 ng/ml salmon calcitonin (CT) and 5 ng/ml salmon calcitonin+100 ng/ml pertussis toxin (CT+PT); (n=3).

[3] = test system: mouse sperm; experiment: Subjective motility evaluation; assay type: cell-based; details: judged subjectively; concentrations as in the CTC experiments
Text: In all experiments, a drop of each suspension was examined briefly for subjective motility evaluation.

[4] = test system: human sperm; details: Green et al., 1996; cited from earlier work
[5] = test system: uncapacitated mouse sperm suspensions; experiment: In vitro fertilization analysis; assay type: cell-based; details: 40 min preincubation, 65 min coincubation
Procedure: The contents of the cauda epididymides from 2 mature TO male mice were released into 2 ml modified Tyrode's medium in 30 mm sterile culture dishes and allowed to disperse for 5 min. Suspensions were then divided into 3 treatment groups, each in a 30 mm sterile dishes, and treated with nothing (Control) or with calcitonin. As in the CTC experiments, salmon calcitonin was used at a final concentration of 5 ng/ml and human calcitonin at 200 ng/ml. Each suspension was overlaid with autoclaved liquid paraffin and incubated for 40 min at 37° C. in an atmosphere of 5% O2, 5% CO2, 90% N2.
Mature female TO mice were induced to superovulate by intraperitoneal injections of 7.5 IU equine chorionic gonadotrophin and approximately 50 hr later with 5 IU human chorionic gonadotrophin (hCG). Approximately 15 hr post-hCG, oviducts were removed and cumulus masses containing the oocytes were released into medium covered with liquid paraffin. Preincubated sperm suspensions were diluted ^˜10 fold into medium of the same composition used for initial incubation (i.e., without or with calcitonin); 400 μl of diluted suspension were transferred to culture dishes, covered with liquid paraffin and oocytes were added. […]
Oocytes were stained with 0.75% aceto orcein, mounted and assessed (Fraser, 1993). […]

[6] = test system: human sperm; details: some (higher) concentrations; Gnessi et al, 1984; cited from earlier work
[7] = pertussis toxin at 100 ng/ml, 40 min

For NC(=O)[C@@H]1CCCN1C(=O)[C@H](CCC(=O)O)NC(=O)[C@@H]1CCC(=O)N1 [FPP, pyroglutamylglutamylprolineamide] ([pGlu]-Glu-Pro-NH2), the “proportion of F pattern cells (uncapacitated, non-fertilizing) vs untreated” value ([1]; 100 nM) was “significantly lower proportion”, the “proportion of B pattern cells (capacitated, potentially fertilizing) vs untreated” value (“proportion of B pattern cells … vs untreated” for short) ([1]; 100 nM, P<0.01, positive control) was “significantly higher proportion” and the “incidence of spontaneously acrosome-reacted sperm vs untreated control” value ([2]; 100 nM, P<0.01, n=3, positive control) was “significantly lower incidence”. The “sperm motility vs untreated controls” value [3] was “more active motility” and the “human sperm fertilizing ability” value [4] was “stimulate human sperm fertilizing ability”.

For calcitonin, the “sperm motility vs untreated controls” value [3] was “more active motility”.

With “human calcitonin: 32-amino acid hypocalcemic hormone of human origin (CGNLSTCMLGTYTQDFNKFHTFPQTAIGVGAP-NH2; disulfide 1-7; ends not checked; UniProt P01258 85-116, looked up)” the “proportion of F pattern cells (uncapacitated, non-fertilizing) vs untreated” value ([1]; 20 ng/ml) was “significantly lower proportion”, the “proportion of B pattern cells … vs untreated” value ([1]; 20 ng/ml, P<0.025, n=2) was “significantly higher proportion” and the “proportion of F pattern cells (uncapacitated, non-fertilizing) vs untreated” value ([1]; 200 ng/ml) was “significantly lower proportion”. The “proportion of B pattern cells … vs untreated” value ([1]; 200 ng/ml, P<0.01, n=3) was “significantly higher proportion”, the “fertilized oocytes obtained vs untreated control sperm” value ([5]; 200 ng/ml, P<0.05, n=4) was “significantly more fertilized oocytes” and the “effect on human sperm motility” value [6] was “not”.

With pertussis toxin the “effect on the response (inhibition of spontaneous acrosome loss) to 5 ng/ml salmon calcitonin” value [2, 7] was “abolished the responses” and the “effect on the response (inhibition of spontaneous acrosome loss) to 100 nM FPP” value [2, 7] was “abolished the responses”.

With salmon calcitonin the “proportion of F pattern cells (uncapacitated, non-fertilizing) vs untreated” value ([1]; 5 ng/ml) was “significantly lower proportion”, the “proportion of B pattern cells … vs untreated” value ([1]; 5 ng/ml, P<0.01, n=3) was “significantly higher proportion” and the “fertilized oocytes obtained vs untreated control sperm” value ([5]; 5 ng/ml, P<0.025, n=4) was “significantly more fertilized oocytes”. The “incidence of spontaneously acrosome-reacted sperm vs untreated control” value ([2]; 5 ng/ml, P<0.01, n=3) was “significantly lower incidence” and the “effect on human sperm motility” value [6] was “negative effect”.

Reference: patent US6716812B1, “Modulation of sperm function” (priority 1998, dated 2004)
